Target: P. falciparum apicoplast DNA polymerase (Pf-apPOL) (Plasmodium falciparum, UniProt Q8ILY1)
Assay: Fluorescence-based high-throughput DNA polymerase assay (molecular beacon), primary screen and dose-response;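 for % inhibition ApPOL 90': test concentration in µM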;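 for % inhibition apPOL 180': test concentration in µM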
Type: biochemical
In short: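 Single-point screening used 10 µM compound with 20 nM polymerase, 20 nM hairpin substrate and 6 µM dNTPs for 90 min at 25 °C. Confirmatory titrations (2.5–80 µM) followed fluorescence at three times, and IC50 was derived from a fit including a cooperativity term n.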

[1] = supplemental file 2, sheet IC50 nontoxic compounds; Pf-apPOL

P. falciparum apicoplast DNA polymerase (Pf-apPOL), sequence (Q8ILY1 entry or part of it): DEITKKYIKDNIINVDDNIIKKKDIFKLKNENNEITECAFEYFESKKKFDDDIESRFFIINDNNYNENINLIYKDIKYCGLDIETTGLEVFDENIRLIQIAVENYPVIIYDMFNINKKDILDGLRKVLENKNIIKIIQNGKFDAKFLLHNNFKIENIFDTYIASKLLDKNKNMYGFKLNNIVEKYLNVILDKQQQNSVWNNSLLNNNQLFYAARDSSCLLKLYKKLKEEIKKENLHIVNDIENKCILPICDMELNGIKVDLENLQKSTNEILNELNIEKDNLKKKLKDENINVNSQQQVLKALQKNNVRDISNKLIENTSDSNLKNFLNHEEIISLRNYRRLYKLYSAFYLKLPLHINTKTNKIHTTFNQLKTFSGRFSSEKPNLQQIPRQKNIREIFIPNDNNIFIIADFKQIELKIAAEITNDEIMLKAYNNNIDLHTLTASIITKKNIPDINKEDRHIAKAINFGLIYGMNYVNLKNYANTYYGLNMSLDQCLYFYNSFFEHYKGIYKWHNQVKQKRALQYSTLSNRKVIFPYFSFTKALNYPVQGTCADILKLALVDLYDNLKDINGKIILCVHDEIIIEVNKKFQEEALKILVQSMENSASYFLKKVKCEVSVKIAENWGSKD

## O=c1cc(-c2ccccc2)oc2c(O)c(O)ccc12 [Molecule 84, Oc1ccc2c(c1O)oc(cc2=O)c1ccccc1]
186 hits, value of the hit list (primary screen); unit not given; 90 min, 10 µM
  DNA Pol: 55
DRC-1; 10'; concentration 2.5
  % inhibition Apo pol 10': 14.1303%
DRC-1; 10'; concentration 5
  % inhibition Apo pol 10': 19.657%
DRC-1; 10'; concentration 10
  % inhibition Apo pol 10': 33.8432%
DRC-1; 10'; concentration 20
  % inhibition Apo pol 10': 42.9919%
DRC-1; 10'; concentration 40
  % inhibition Apo pol 10': 51.8731%
DRC-1; 10'; concentration 80
  % inhibition Apo pol 10': 57.9256%
DRC-1; 90'; concentration 2.5
  % inhibition Apol 90': 6.487%
DRC-1; 90'; concentration 5
  % inhibition Apol 90': 3.595%
DRC-1; 90'; concentration 10
  % inhibition Apol 90': 11.2996%
DRC-1; 90'; concentration 20
  % inhibition Apol 90': 16.5407%
DRC-1; 90'; concentration 40
  % inhibition Apol 90': 24.8113%
DRC-1; 90'; concentration 80
  % inhibition Apol 90': 29.7853%
DRC-1; 180'; concentration 2.5
  % inhibition apPOL 180': 1.7844%
DRC-1; 180'; concentration 5
  % inhibition apPOL 180': -2.772%
DRC-1; 180'; concentration 10
  % inhibition apPOL 180': 4.166%
DRC-1; 180'; concentration 20
  % inhibition apPOL 180': 7.699%
DRC-1; 180'; concentration 40
  % inhibition apPOL 180': 14.2771%
DRC-1; 180'; concentration 80
  % inhibition apPOL 180': 18.1576%
DRC-2, 5', concentration 2.5
  % inhibition Apo pol 5': 12%
DRC-2, 5', concentration 5
  % inhibition Apo pol 5': 18%
DRC-2, 5', concentration 10
  % inhibition Apo pol 5': 26%
DRC-2, 5', concentration 20
  % inhibition Apo pol 5': 32%
DRC-2, 5', concentration 40
  % inhibition Apo pol 5': 41%
DRC-2, 5', concentration 80
  % inhibition Apo pol 5': 42%
DRC-2, 40', concentration 2.5
  % inhibition Apol 40': 10%
DRC-2, 40', concentration 5
  % inhibition Apol 40': 13%
DRC-2, 40', concentration 10
  % inhibition Apol 40': 21%
DRC-2, 40', concentration 20
  % inhibition Apol 40': 23%
DRC-2, 40', concentration 40
  % inhibition Apol 40': 32%
DRC-2, 40', concentration 80
  % inhibition Apol 40': 36%
DRC-2, 90', concentration 2.5
  % inhibition ApPOL 90': 8%
DRC-2, 90', concentration 5
  % inhibition ApPOL 90': 10%
DRC-2, 90', concentration 10
  % inhibition ApPOL 90': 16%
DRC-2, 90', concentration 20
  % inhibition ApPOL 90': 17%
DRC-2, 90', concentration 40
  % inhibition ApPOL 90': 26%
DRC-2, 90', concentration 80
  % inhibition ApPOL 90': 32%
DRC-2, 180', concentration 2.5
  % inhibition apPOL 180': 1.74%
DRC-2, 180', concentration 5
  % inhibition apPOL 180': 3.63%
DRC-2, 180', concentration 10
  % inhibition apPOL 180': 7.41%
DRC-2, 180', concentration 20
  % inhibition apPOL 180': 6%
DRC-2, 180', concentration 40
  % inhibition apPOL 180': 16%
DRC-2, 180', concentration 80
  % inhibition apPOL 180': 23%
DRC-2; 5'; concentration 10
  % inhibition Apo pol 5': 26%
DRC-2; 5'; concentration 20
  % inhibition Apo pol 5': 32%
DRC-2; 40'; concentration 2.5
  % inhibition Apol 40': 10%
DRC-2; 40'; concentration 20
  % inhibition Apol 40': 23%
DRC-2; 40'; concentration 40
  % inhibition Apol 40': 32%
DRC-2; 90'; concentration 5
  % inhibition ApPOL 90': 10%
DRC-2; 90'; concentration 10
  % inhibition ApPOL 90': 16%
DRC-2; 90'; concentration 40
  % inhibition ApPOL 90': 26%
DRC-2; 90'; concentration 80
  % inhibition ApPOL 90': 32%
DRC-2; 180'; concentration 40
  % inhibition apPOL 180': 16%
DRC-2; 180'; concentration 80
  % inhibition apPOL 180': 23%
Primary screen value, 'DNA Pol' only; 90 min, 10 µM
  DNA Pol: 55

## O=c1cc(-c2ccccc2)oc2c(O)c(O)ccc12 [Molecule 84]
[1]
  IC50: 32.2 µM

## Cc1ccccc1NC(=O)Cn1ccc2c(=O)[nH]ccc21 [Molecule 85]
[1]
  IC50: 9.12 µM

## Cc1nc2c(oc3nc(-c4ccco4)c4c(c32)CC(C)(C)OC4)c(-c2ccccc2)c1C(=O)O [Molecule 86]
[1]
  IC50: 7.41 µM

Source: paper PMC9090415, “Discovery of small molecule inhibitors of Plasmodium falciparum apicoplast DNA polymerase” (Journal of Enzyme Inhibition and Medicinal Chemistry, 2022)
